Results reported in US6344178B1, “Method for the preparation of facial metal tricarbonyl compounds and their use in the labelling of biologically active substrates” (Mallinckrodt Inc., priority 1997, dated 2002).

System: coloncarcinoma cells HT29
Experiment: Kd on coloncarcinoma cells HT29
Format: binding
Method: 0.9 ml of [^99mTc(OH2)3(CO)3]^+ as prepared in example 1 is mixed with 0.1 ml of 10^−3M His-Neurotensin(8-13) (HRRPYIIL) and kept in a sealed tube at 75° C. for one hour. After this time the reaction mixture is cooled to room temperature. As evident from reversed phase column HPLC the yield is >95%. The Kd of this compound on coloncarcinoma cells HT29 is 1.0 nM.

Question: Which Kd does the source give for “HRRPYIIL [His-Neurotensin(8-13), His-Neurotensin(8-13) (HRRPYIIL) labelled with [99mTc(OH2)3(CO)3]+]” here?
Answer: 1 nM
